Assay results as given in patent EP0351029B1, “Novel glucose isomerase enzymes and their use” (GENENCOR INTERNATIONAL, INC., priority 1988, dated 1990).

Assays:
[1] = target: T1, Actinoplanes missouriensis glucose isomerase (EcoAmi(DSM) GI), wildtype (WT-GI) (Actinoplanes missouriensis, UniProt P12851); experiment: Catalytic parameters with D-xylose (D-sorbitol dehydrogenase coupled assay) or D-glucose (cysteine-carbazole method) as substrate; assay type: biochemical; conditions: 35°C, pH 7.5, 10mM MgSO4
T1 construct: made in house; host or cells: E. coli K514 (pMa5-I / pMc5-I)
T1 sequence (P12851 whole entry): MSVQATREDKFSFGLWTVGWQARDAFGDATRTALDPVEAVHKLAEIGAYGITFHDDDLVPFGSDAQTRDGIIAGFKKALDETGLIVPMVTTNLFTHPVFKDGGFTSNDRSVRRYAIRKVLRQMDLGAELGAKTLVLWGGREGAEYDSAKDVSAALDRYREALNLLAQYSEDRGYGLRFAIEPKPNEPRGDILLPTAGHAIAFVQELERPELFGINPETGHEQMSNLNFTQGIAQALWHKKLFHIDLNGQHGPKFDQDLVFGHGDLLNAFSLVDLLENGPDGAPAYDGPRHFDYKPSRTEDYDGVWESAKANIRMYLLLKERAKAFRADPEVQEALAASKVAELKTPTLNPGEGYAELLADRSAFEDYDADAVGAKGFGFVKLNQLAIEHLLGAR
Method: (§1) In the D-Sorbitol Dehydrogenase Coupled Assay, enzymatic determination of D-xylulose was performed at 35°C as previously described (Kersters-Hilderson et al., Enzyme Microb. Technol. 9 (1987) 145) in 50mM triethanolamine, pH 7.5, 10mM MgSO4, and 0.1 M xylose, in the presence of ± 2 x 10^-8 M D-sorbitol dehydrogenase (L-iditol : NAD oxido-reductase, EC 1.1.14), and 0.15 nM NADH, except that the incubation buffer also included 1mM ethylenebis(oxyethylene-nitrilo)tetraacetic acid (EGTA). Glucose isomerase final concentration in this assay was ± 2.5 x 10^-3 mg/ml, and precisely determined as described above.
(§2) With glucose as a substrate GI activity can be assayed by the measurement of D-fructose produced during the isomerization reaction using the cysteine-carbazole method (CCM) which is based on the reaction of ketosugars with carbazole in acids to yield a purple product (Dische and Borenfreund, 1951).
(§3) • Spa = specific activity in micromoles of product (D-xylulose or D-fructose) per minute (unit), per mg of enzyme. • Vmax is expressed in units per mg of enzyme. • KM is the Michaelis constant, expressed in mM. • ND = not determined.

[2] = target: T2, Actinoplanes missouriensis glucose isomerase (EcoAmi(DSM) GI), mutant G70S;A73S;G74T (Actinoplanes missouriensis, UniProt P12851, A73S/G70S/G74T); assay type: biochemical; conditions: D-xylose as substrate, coupled assay, 35°C, pH 7.5, 10mM MgSO4
T2 construct: made in house; host or cells: E. coli K514 (mutated pMa5-I / pMc5-I)
T2 sequence (P12851 whole entry G70S/A73S/G74T): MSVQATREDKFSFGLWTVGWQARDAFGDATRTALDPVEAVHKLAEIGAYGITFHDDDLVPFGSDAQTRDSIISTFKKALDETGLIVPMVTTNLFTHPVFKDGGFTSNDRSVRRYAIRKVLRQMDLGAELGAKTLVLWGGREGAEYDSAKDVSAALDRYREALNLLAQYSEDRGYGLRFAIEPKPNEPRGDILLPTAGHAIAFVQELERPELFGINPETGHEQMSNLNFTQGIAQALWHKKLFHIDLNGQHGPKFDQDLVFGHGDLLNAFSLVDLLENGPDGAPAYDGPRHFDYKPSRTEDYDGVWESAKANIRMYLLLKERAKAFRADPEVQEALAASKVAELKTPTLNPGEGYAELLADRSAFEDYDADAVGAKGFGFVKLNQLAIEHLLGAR
Method: as §1, §2, §3

SMILES: O=C[C@H](O)[C@@H](O)[C@H](O)CO [Xylose, D-xylose]
- Km [1]: 4.8 mM
- Vmax (Xylose) [1]: 24.2 units per mg of enzyme
- Km (Xylose) [2]: 5.3 mM
- Vmax (Xylose) [2]: 24.9 units per mg of enzyme
